Assays:
Test in all cases: Test G Pre-Emergence Protocol
Format in all cases: in vivo
[1] = tested on: redroot pigweed (Amaranthus retroflexus); details: Amaranthus retroflexus, pre-emergence, 312 h, evaluated after 13 days; for pest or weed control at 15.625 g/ha: 15.625 g ai/ha; for pest or weed control at 15.625 g/ha / pest or weed control at 250 g/ha: read-out: Pigweed, Redroot damage rating (100=total damage to plant; 0=no damage to plant); for pest or weed control at 62.5 g/ha: 62.5 g ai/ha, 100=total damage to plant, 0=no damage to plant, read-out: plant damage rating, Pigweed, Redroot; for pest or weed control at 250 g/ha: 250 g ai/ha
Procedure, shortened: (§1)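 Visual injury (0–100) at day 13 after a single pre-emergence spray. Rates: 15.625, 62.5, 250 g/ha in acetone–water 50:50 with 0.5% Tween 20. Growth conditions: 24/16° C, 14 h light, 65% humidity.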

[2] = tested on: giant foxtail (Setaria faberi); details: Setaria faberi, pre-emergence, 312 h, evaluated after 13 days; for pest or weed control at 15.625 g/ha: 15.625 g ai/ha; for pest or weed control at 15.625 g/ha / pest or weed control at 250 g/ha: read-out: Foxtail, Giant damage rating (100=total damage to plant; 0=no damage to plant); for pest or weed control at 62.5 g/ha: 62.5 g ai/ha, 100=total damage to plant, 0=no damage to plant, read-out: plant damage rating, Foxtail, Giant; for pest or weed control at 250 g/ha: 250 g ai/ha
Procedure, shortened: as §1

corn (Zea mays) = details: Zea mays, pre-emergence, 312 h, evaluated after 13 days; for plant injury at 15.625 g/ha: 15.625 g ai/ha; for plant injury at 15.625 g/ha / plant injury at 250 g/ha: read-out: Corn damage rating (100=total damage to plant; 0=no damage to plant); for plant injury at 62.5 g/ha: 62.5 g ai/ha, 100=total damage to plant, 0=no damage to plant, read-out: plant damage rating, Corn; for plant injury at 250 g/ha: 250 g ai/ha
Procedure, shortened: as §1

[3] = tested on: ivy-leaved morning glory (Ipomoea hederacea); details: Ipomoea, pre-emergence, 312 h, evaluated after 13 days; for pest or weed control at 15.625 g/ha: 15.625 g ai/ha, read-out: Morning-glory, Ivy-leaved damage rating (100=total damage to plant; 0=no damage to plant); for pest or weed control at 250 g/ha: 250 g ai/ha, read-out: Morningglory, Ivy-leaved damage rating (100=total damage to plant; 0=no damage to plant); for pest or weed control at 62.5 g/ha: 62.5 g ai/ha, 100=total damage to plant, 0=no damage to plant, read-out: plant damage rating, Morningglory, Ivy-leaved
Procedure, shortened: as §1

[4] = tested on: velvetleaf (Abutilon theophrasti); details: Abutilon theophrasti, pre-emergence, 312 h, evaluated after 13 days; for pest or weed control at 15.625 g/ha: 15.625 g ai/ha; for pest or weed control at 15.625 g/ha / pest or weed control at 250 g/ha: read-out: Velvetleaf damage rating (100=total damage to plant; 0=no damage to plant); for pest or weed control at 62.5 g/ha: 62.5 g ai/ha, 100=total damage to plant, 0=no damage to plant, read-out: plant damage rating, Velvetleaf; for pest or weed control at 250 g/ha: 250 g ai/ha
Procedure, shortened: as §1

[5] = tested on: barnyardgrass (Echinochloa crus-galli); details: Echinochloa crus-galli, pre-emergence, 312 h, evaluated after 13 days; for pest or weed control at 15.625 g/ha: 15.625 g ai/ha, read-out: Barnyard grass damage rating (100=total damage to plant; 0=no damage to plant); for pest or weed control at 62.5 g/ha: 62.5 g ai/ha, 100=total damage to plant, 0=no damage to plant, read-out: plant damage rating, Barnyardgrass; for pest or weed control at 250 g/ha: 250 g ai/ha, read-out: Barnyardgrass damage rating (100=total damage to plant; 0=no damage to plant)
Procedure, shortened: as §1

| Structure (SMILES) | pest or weed control at 15.625 g/ha [1] | pest or weed control at 62.5 g/ha [1] | pest or weed control at 250 g/ha [1] | pest or weed control at 15.625 g/ha [2] | pest or weed control at 62.5 g/ha [2] | pest or weed control at 250 g/ha [2] | plant injury at 15.625 g/ha (corn (Zea mays)) | plant injury at 62.5 g/ha (corn (Zea mays)) | plant injury at 250 g/ha (corn (Zea mays)) | pest or weed control at 15.625 g/ha [3] | pest or weed control at 250 g/ha [3] | pest or weed control at 15.625 g/ha [4] | pest or weed control at 62.5 g/ha [4] | pest or weed control at 250 g/ha [4] | pest or weed control at 15.625 g/ha [5] | pest or weed control at 62.5 g/ha [5] | pest or weed control at 250 g/ha [5] | pest or weed control at 62.5 g/ha [3] |
| --- | --- | --- | --- | --- | --- | --- | --- | --- | --- | --- | --- | --- | --- | --- | --- | --- | --- | --- |
| Cc1cscc1NC(=O)[C@@H]1C(=O)N(C)C[C@H]1c1ccc(C(F)(F)F)cc1 (racemic) [Compound 1526] | 0% | 50% | 70% | 30% | 50% | 90% | 0% | 0% | 10% | 10% | 0% | 0% | 0% | 0% | 20% | 60% | 80% |  |
| CN1C[C@@H](c2ccc(C(F)(F)F)cc2)[C@H](C(=O)Nc2nc[nH]n2)C1=O (racemic) [Compound 1534] | 0% | 0% | 0% | 0% | 0% | 0% | 0% | 0% | 0% | 0% | 0% | 0% | 0% | 0% | 0% | 0% | 0% | 0% |
| CN1C[C@H](c2ccc3c(c2)CCO3)[C@@H](C(=O)Nc2cccc(F)c2F)C1=O (racemic) [Compound 1499] |  | 0% | 0% | 0% | 80% | 80% | 0% | 0% | 80% | 0% | 100% | 0% | 0% | 30% | 0% | 80% | 90% | 0% |
| CN1C[C@@H](c2ccc(C(F)(F)F)cc2)[C@H](C(=O)Nc2ccccc2)C1=O (racemic) [Compound 1404] | 0% | 0% | 20% | 0% | 70% | 80% | 0% | 0% | 0% | 0% | 20% | 0% | 0% | 0% | 0% | 20% | 70% | 10% |
| CN1C[C@@H](c2ccc(C(F)(F)F)cc2)[C@H](C(=O)Nc2cc(C(F)(F)F)nn2C)C1=O (racemic) [Compound 1510] |  | 0% | 0% | 0% | 0% | 0% | 0% | 0% | 0% | 0% | 0% | 0% | 0% | 0% | 0% | 0% | 0% | 0% |
| CN1C[C@@H](c2ccc(C(F)(F)F)cc2)[C@H](C(=O)Nc2ccc(C(F)(F)F)nc2Cl)C1=O (racemic) [Compound 1542] | 0% | 0% | 0% | 0% | 10% | 10% | 0% | 0% | 0% |  | 0% | 0% | 0% | 0% | 0% | 10% | 10% | 0% |
| CN1C[C@@H](c2ccc(C(F)(F)F)cc2)[C@H](C(=O)Nc2ncc(Br)cn2)C1=O (racemic) [Compound 1514] | 0% | 0% | 0% | 0% | 0% | 0% | 0% | 0% | 0% | 0% | 0% | 0% | 0% | 0% | 0% | 0% | 0% | 0% |
| CN1C[C@@H](c2ccc(C(F)(F)F)cc2)[C@H](C(=O)Nc2ncc(C#N)s2)C1=O (racemic) [Compound 1528] | 0% | 0% | 0% | 0% | 0% | 0% | 0% | 0% | 0% | 0% | 0% | 0% | 0% | 0% | 0% | 0% | 0% | 0% |
| CN1C[C@@H](c2ccc(C(F)(F)F)cc2)[C@H](C(=O)Nc2cnccc2Cl)C1=O (racemic) [Compound 1541] | 0% | 0% | 40% | 0% | 0% | 70% | 0% | 0% | 10% | 0% | 0% | 0% | 0% | 0% | 0% | 0% | 30% | 0% |

— US12077503B2, “Substituted cyclic amides and their use as herbicides” (FMC CORPORATION, priority 2015, dated 2024)
